Measured values: ChEMBL document CHEMBL4265942, “Four new antitumor metabolites isolated from a mutant 3-f-31 strain derived from Penicillium purpurogenum G59” (Eur J Med Chem, 2018)

How the values were obtained:
Assay type in all cases: functional
[1] = tested on: A549; assay: Antiproliferative activity against human A549 cells assessed as inhibition of cell growth at 100 uM after 72 hrs by sulforhodamine B assay relative to control; conditions: A549, 72 h
[2] = tested on: HeLa; assay: Antiproliferative activity against human HeLa cells assessed as inhibition of cell growth at 100 uM after 72 hrs by sulforhodamine B assay relative to control
[3] = tested on: MCF7; assay: Antiproliferative activity against human MCF7 cells assessed as inhibition of cell growth at 100 uM after 72 hrs by sulforhodamine B assay relative to control; conditions: MCF7, 72 h
[4] = tested on: HCT-116; assay: Antiproliferative activity against human HCT116 cells assessed as inhibition of cell growth at 100 uM after 72 hrs by sulforhodamine B assay relative to control; conditions: HCT-116, 72 h
[5] = tested on: HepG2; assay: Antiproliferative activity against human HepG2 cells assessed as inhibition of cell growth at 100 uM after 72 hrs by sulforhodamine B assay relative to control; conditions: HepG2, 72 h
[6] = tested on: NCI-H1975; assay: Antiproliferative activity against human NCI-H1975 cells assessed as inhibition of cell growth at 100 uM after 72 hrs by sulforhodamine B assay relative to control; conditions: NCI-H1975, 72 h
[7] = tested on: HL-60; assay: Antiproliferative activity against human HL60 cells assessed as inhibition of cell growth at 100 uM after 72 hrs by MTT assay relative to control; conditions: HL-60, 72 h
[8] = tested on: K562; assay: Antiproliferative activity against human K562 cells assessed as inhibition of cell growth at 100 uM after 72 hrs by MTT assay relative to control; conditions: K562, 72 h
[9] = tested on: LS180; assay: Antiproliferative activity against human LS180 cells assessed as inhibition of cell growth at 100 uM after 72 hrs by sulforhodamine B assay relative to control; conditions: LS180, 72 h
[10] = tested on: SW480; assay: Antiproliferative activity against human SW480 cells assessed as inhibition of cell growth at 100 uM after 72 hrs by sulforhodamine B assay relative to control; conditions: SW480, 72 h
[11] = tested on: HT-29; assay: Antiproliferative activity against human HT-29 cells assessed as inhibition of cell growth at 100 uM after 72 hrs by sulforhodamine B assay relative to control; conditions: HT-29, 72 h
[12] = tested on: PC-3; assay: Antiproliferative activity against human PC3 cells assessed as inhibition of cell growth at 100 uM after 72 hrs by sulforhodamine B assay relative to control; conditions: PC-3, 72 h
[13] = tested on: BXPC-3; assay: Antiproliferative activity against human BxPC3 cells assessed as inhibition of cell growth at 100 uM after 72 hrs by sulforhodamine B assay relative to control; conditions: BXPC-3, 72 h
[14] = tested on: PANC-1; assay: Antiproliferative activity against human PANC1 cells assessed as inhibition of cell growth at 100 uM after 72 hrs by sulforhodamine B assay relative to control; conditions: PANC-1, 72 h

Measured: inhibition at 100 µM

O=c1[nH]cc(F)c(=O)[nH]1 [FLUOROURACIL]
41 to 95%: all assays above
